# Measured values reported in patent publication US9593305B2, “Differentiation of pluripotent stem cells” (Janssen Biotech, Inc., priority 2008, dated 2017).
# How the values were obtained:
# [1] = tested on: H1 human embryonic stem cells; test: Single-cell monolayer assay with EGF/FGF4, serum free, no activin A (Example 10, Table 10); assay type: cell-based
# Experimental: Briefly, clusters of H1 human embryonic stem cells were grown on reduced growth factor […]™ (Invitrogen; Cat #356231)-coated tissue culture plastic. Cultures were treated with Accutase (Sigma; Cat #A6964), using equivalent volumes of […] surface area for 5 minutes at 37° C., then gently resuspended, pelleted by centrifugation, and resuspended in MEF conditioned medium for counting. For assay seeding, cells were plated at 50,000 cells/cm^2 on reduced growth factor […]™-coated 96-well black plates (Packard ViewPlates; Cat #6005182) using volumes of 100 μl/well. Cells were allowed to attach and recover log phase growth over a 3 to 5 day period, feeding daily with MEF conditioned medium supplemented with 8 ng/ml bFGF (R&D Systems; Cat #233-FB). Plates were maintained at 37° C., 5% CO2 in a humidified box throughout the duration of assay.
# Stocks of EGF and FGF4 were prepared in a 96-well polypropylene plate (Corning, Inc.; Cat #3960). Compound 22 was available as a 5 mM stock solubilized in 100% DMSO (Sigma; Cat #D2650) and stored at −80° C. Assays were initiated by aspirating culture medium from each well followed by three washes in PBS to remove residual growth factors and serum. […]
# On the second day of assay, wells were again aspirated and fed with 80 μl per well were added back containing RPMI 1640 base medium supplemented with 2.5% fatty acid free BSA, 10 ng/ml bFGF, and 3.125 μM Compound 22 plus 20 μl 5× stock of growth factors to yield a final concentration of 2% fatty acid free BSA, 8 ng/ml bFGF and 2.5 μM Compound 22 in assay. Positive control wells contained the same base medium supplemented with 2% fatty acid free BSA, 8 ng/ml bFGF and 100 ng/ml recombinant human activin A. Negative control samples contained the same base medium supplemented with 2% fatty acid free BSA and 8 ng/ml bFGF but omitted treatment with activin A.
# At the conclusion of four-days of culture, assay plates were washed twice with PBS, fixed with 4% paraformaldehyde (Alexis Biochemical; Cat #ALX-350-011) at room temperature for 20 minutes, then washed three times with PBS and permeabilized with 0.5% Triton X-100 (Sigma; Cat #T8760-2) for 20 minutes at room temperature. Cells were washed again three times with PBS and blocked with 4% chicken serum (Invitrogen; Cat #16110082) in PBS for 30 minutes at room temperature. Primary antibody (goat anti-human SOX17; R&D Systems; cat #AF1924) was diluted 1:100 in 4% chicken serum and added to each well for one hour at room temperature. Alexa Fluor 488 conjugated secondary antibody (chicken anti-goat IgG; Molecular Probes; Cat #AZ1467) was diluted 1:200 in PBS and added to each sample well after washing three times with PBS. To counterstain nuclei, 4 μg/ml Hoechst 33342 (Invitrogen; Cat #H3570) was added for ten minutes at room temperature. Plates were washed once with PBS and left in 100 μl/well PBS for imaging.
# Imaging was performed using an IN Cell Analyzer 1000 (GE Healthcare) utilizing the 51008bs dichroic for cells stained with Hoechst 33342 and Alexa Fluor 488. Exposure times were optimized from positive control wells and from untreated negative control wells stained with secondary antibody alone. Images from 15 fields per well were acquired to compensate for any cell loss during the bioassay and subsequent staining procedures. Measurements for total cell number and total SOX17 intensity were obtained from each well using IN Cell Developer Toolbox 1.7 (GE Healthcare) software. Segmentation for the nuclei was determined based on gray-scale levels (baseline range 100-300) and nuclear size. Averages and standard deviations were calculated for each replicate data set. Total SOX17 protein expression was reported as total intensity or integrated intensity, defined as total fluorescence of the cell multiplied by the area of the cell. Background was eliminated based on acceptance criteria of gray-scale ranges between 200 to 3500. […]
# [2] = tested on: H1 human embryonic stem cells; test: Definitive endoderm formation with TGF superfamily members, SOX17 and cell number (Example 14); assay type: cell-based; conditions: growth factor with 20 ng/ml Wnt3a, three days
# Experimental: Clusters were centrifuged at low speed to collect a cell pellet and remove residual dispase. […] All human embryonic stem cell lines were maintained at passage numbers less than 50 and routinely evaluated for normal karyotype and absence of mycoplasma.
# Cells were washed again three times with PBS and blocked with 4% chicken serum (Invitrogen; Cat #16110082) in PBS for 30 minutes at room temperature. […] Plates were washed once with PBS and left in 100 μl/well PBS for imaging.
# [3] = No AA (with Wnt3a), FGF none, EGF none
# [4] = No AA (with Wnt3a), FGF none, EGF(25 ng/ml)
# [5] = No AA (with Wnt3a), FGF none, EGF(50 ng/ml)
# [6] = No AA (with Wnt3a), FGF none, EGF(100 ng/ml)
# [7] = No AA (with Wnt3a), FGF(25 ng/ml), EGF none
# [8] = No AA (with Wnt3a), FGF(25 ng/ml), EGF(25 ng/ml)
# [9] = No AA (with Wnt3a), FGF(25 ng/ml), EGF(50 ng/ml)
# [10] = No AA (with Wnt3a), FGF(25 ng/ml), EGF(100 ng/ml)
# [11] = No AA (with Wnt3a), FGF(50 ng/ml), EGF none
# [12] = No AA (with Wnt3a), FGF(50 ng/ml), EGF(25 ng/ml)
# [13] = No AA (with Wnt3a), FGF(50 ng/ml), EGF(50 ng/ml)
# [14] = No AA (with Wnt3a), FGF(50 ng/ml), EGF(100 ng/ml)
# [15] = No AA (with Wnt3a), FGF(100 ng/ml), EGF none
# [16] = No AA (with Wnt3a), FGF(100 ng/ml), EGF(25 ng/ml)
# [17] = No AA (with Wnt3a), FGF(100 ng/ml), EGF(50 ng/ml)
# [18] = No AA (with Wnt3a), FGF(100 ng/ml), EGF(100 ng/ml)
# [19] = No AA (without Wnt3a), FGF(50 ng/ml), EGF(50 ng/ml)
# [20] = No AA (without Wnt3a), FGF(50 ng/ml), EGF(100 ng/ml)
# [21] = No AA (without Wnt3a), FGF(100 ng/ml), EGF(50 ng/ml)
# [22] = No AA (without Wnt3a), FGF(100 ng/ml), EGF(100 ng/ml)
# [23] = Activin A (with Wnt3a), positive control
compound,measurement,setting,value
"O=C1CCN2CCN(CC2)Cc2cc(Cl)cc(c2)Nc2ncnc(n2)-c2cncc(c2)CCCN1 [Compound 34, 5-Chloro-1,8,10,12,16,22,26,32-octaazapentacyclo[24.2.2.1˜3.7˜0.1˜9,13˜0.1˜14.18˜]tritriaconta-3(33), 4,6,9(32), 10,12,14(31), 15,17-nonaen-23-one]","Cell Number, % of positive control",[1]; [3],92.38%
same,"Cell Number, Average Total Cell Number",[1]; [3],11711
same,"Sox17 Expression, % of positive control",[1]; [3],60.68%
same,"Sox17 Expression, Average Total Intensity",[1]; [3],1.65E+08
same,"Cell Number, % of positive control",[1]; [4],126.63%
same,"Cell Number, Average Total Cell Number",[1]; [4],16052
same,"Sox17 Expression, % of positive control",[1]; [4],78.82%
same,"Sox17 Expression, Average Total Intensity",[1]; [4],2.14E+08
same,"Cell Number, % of positive control",[1]; [5],107.23%
same,"Cell Number, Average Total Cell Number",[1]; [5],13593
same,"Sox17 Expression, % of positive control",[1]; [5],71.52%
same,"Sox17 Expression, Average Total Intensity",[1]; [5],1.94E+08
same,"Cell Number, % of positive control",[1]; [6],103.90%
same,"Cell Number, Average Total Cell Number",[1]; [6],13170
same,"Sox17 Expression, % of positive control",[1]; [6],71.04%
same,"Sox17 Expression, Average Total Intensity",[1]; [6],1.93E+08
same,"Cell Number, % of positive control",[1]; [7],145.41%
same,"Cell Number, Average Total Cell Number",[1]; [7],18433
same,"Sox17 Expression, % of positive control",[1]; [7],91.72%
same,"Sox17 Expression, Average Total Intensity",[1]; [7],2.49E+08
same,"Cell Number, % of positive control",[1]; [8],148.63%
same,"Cell Number, Average Total Cell Number",[1]; [8],18841
same,"Sox17 Expression, % of positive control",[1]; [8],95.72%
same,"Sox17 Expression, Average Total Intensity",[1]; [8],2.60E+08
same,"Cell Number, % of positive control",[1]; [9],128.05%
same,"Cell Number, Average Total Cell Number",[1]; [9],16232
same,"Sox17 Expression, % of positive control",[1]; [9],84.79%
same,"Sox17 Expression, Average Total Intensity",[1]; [9],2.30E+08
same,"Cell Number, % of positive control",[1]; [10],73.44%
same,"Cell Number, Average Total Cell Number",[1]; [10],9309
same,"Sox17 Expression, % of positive control",[1]; [10],51.00%
same,"Sox17 Expression, Average Total Intensity",[1]; [10],1.39E+08
same,"Cell Number, % of positive control",[1]; [11],100.64%
same,"Cell Number, Average Total Cell Number",[1]; [11],12757
same,"Sox17 Expression, % of positive control",[1]; [11],61.10%
same,"Sox17 Expression, Average Total Intensity",[1]; [11],1.66E+08
same,"Cell Number, % of positive control",[1]; [12],139.79%
same,"Cell Number, Average Total Cell Number",[1]; [12],17720
same,"Sox17 Expression, % of positive control",[1]; [12],85.01%
same,"Sox17 Expression, Average Total Intensity",[1]; [12],2.31E+08
same,"Cell Number, % of positive control",[1]; [13],128.83%
same,"Cell Number, Average Total Cell Number",[1]; [13],16331
same,"Sox17 Expression, % of positive control",[1]; [13],83.11%
same,"Sox17 Expression, Average Total Intensity",[1]; [13],2.26E+08
same,"Cell Number, % of positive control",[1]; [14],128.87%
same,"Cell Number, Average Total Cell Number",[1]; [14],16336
same,"Sox17 Expression, % of positive control",[1]; [14],85.24%
same,"Sox17 Expression, Average Total Intensity",[1]; [14],2.32E+08
same,"Cell Number, % of positive control",[1]; [15],156.61%
same,"Cell Number, Average Total Cell Number",[1]; [15],19853
same,"Sox17 Expression, % of positive control",[1]; [15],95.45%
same,"Sox17 Expression, Average Total Intensity",[1]; [15],2.59E+08
same,"Cell Number, % of positive control",[1]; [16],156.83%
same,"Cell Number, Average Total Cell Number",[1]; [16],19880
same,"Sox17 Expression, % of positive control",[1]; [16],95.47%
same,"Sox17 Expression, Average Total Intensity",[1]; [16],2.59E+08
same,"Cell Number, % of positive control",[1]; [17],143.30%
same,"Cell Number, Average Total Cell Number",[1]; [17],18166
same,"Sox17 Expression, % of positive control",[1]; [17],86.30%
same,"Sox17 Expression, Average Total Intensity",[1]; [17],2.35E+08
same,"Cell Number, % of positive control",[1]; [18],88.68%
same,"Cell Number, Average Total Cell Number",[1]; [18],11241
same,"Sox17 Expression, % of positive control",[1]; [18],57.10%
same,"Sox17 Expression, Average Total Intensity",[1]; [18],1.55E+08
same,"Cell Number, % of positive control",[1]; [19],105.06%
same,"Cell Number, Average Total Cell Number",[1]; [19],13317
same,"Sox17 Expression, % of positive control",[1]; [19],74.08%
same,"Sox17 Expression, Average Total Intensity",[1]; [19],2.01E+08
same,"Cell Number, % of positive control",[1]; [20],111.93%
same,"Cell Number, Average Total Cell Number",[1]; [20],14189
same,"Sox17 Expression, % of positive control",[1]; [20],73.90%
same,"Sox17 Expression, Average Total Intensity",[1]; [20],2.01E+08
same,"Cell Number, % of positive control",[1]; [21],99.52%
same,"Cell Number, Average Total Cell Number",[1]; [21],12616
same,"Sox17 Expression, % of positive control",[1]; [21],66.21%
same,"Sox17 Expression, Average Total Intensity",[1]; [21],1.80E+08
same,"Cell Number, % of positive control",[1]; [22],65.23%
same,"Cell Number, Average Total Cell Number",[1]; [22],8269
same,"Sox17 Expression, % of positive control",[1]; [22],41.73%
same,SOX17 expression,"[1]; compound added to EGF and/or FGF4, single cells, no activin A",significant enhancement of SOX17 expression
"Activin A: recombinant human activin A (PeproTech), TGF-beta family member","Cell Number, % of positive control",[1]; [23],100.00%
same,"Cell Number, Average Total Cell Number",[1]; [23],12676
same,"Sox17 Expression, % of positive control",[1]; [23],100.00%
same,"Sox17 Expression, Average Total Intensity",[1]; [23],2.72E+08
same,SOX17 expression in combination with Wnt3a,[2],robust expression of SOX17
"GDF-8: growth factor GDF-8, also known as myostatin, member of the TGF-β family",SOX17 expression in combination with Wnt3a,[2],significant induction of SOX17 expression
